# Tests used:
# Format in all cases: cell-based
# [1] = system: human dermal fibroblasts CCC-ESF-1; assay: Anti-fibrosis activity test: inhibition of proliferation of human dermal fibroblasts CCC-ESF-1 (CCK-8); conditions: Fibroblast; human dermal fibroblasts CCC-ESF-1, CCK-8, 48 hours
# Procedure, shortened: (§1)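 Read-out: absorbance at 450 nm after 2 h with CCK-8, following 48 h of compound exposure of adhered cells (2×10^4 cells/mL, 24 h attachment, 37° C, 5% CO2). Proliferation inhibition was taken relative to the blank control, and IC50 values were calculated from it.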
# NF-κB = assay: Immunological activity test: inhibition of NF-κB activity; conditions: initial concentration of 30 μM; a/b isomers given as first/second symbol; read-out: IC50 (μM), inhibitory activity against NF-κB
# Procedure, shortened: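 IC50 values come from further analysis of the data after an initial test at a single 30 μM concentration. Parthenolide served as the reference inhibitor.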
# [2] = system: human fibrosarcoma cells HT-1080; assay: Anti-fibrosis activity test: inhibition of proliferation of human fibrosarcoma cells HT-1080 (CCK-8); conditions: Homo sapiens, HT-1080, 48 h, human fibrosarcoma cells HT-1080, CCK-8, 48 hours
# Procedure, shortened: as §1
# [3] = system: mouse macrophages (RAW264.7); assay: Lipopolysaccharide-induced NO secretion in macrophages (Griess); conditions: Mus musculus, RAW264.7, 24 h, RAW264.7, LPS 1 μg/ml, a/b isomers given as first/second symbol, read-out: IC50 (μM), inhibition of lipopolysaccharide-induced NO secretion in macrophages
# Procedure, shortened: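 Absorbance at 548 nm after Griess reagent addition to culture supernatant gave NO content; inhibition rate was derived relative to blank control. Cells were mouse RAW264.7 macrophages exposed to compounds and 1 μg/ml LPS for 24 hours.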
# [4] = system: human hepatic stellate cells LX-2; assay: Anti-fibrosis activity test: inhibition of proliferation of human hepatic stellate cells LX-2 (CCK-8); conditions: Homo sapiens, 48 h, human hepatic stellate cells LX-2, CCK-8, 48 hours
# Procedure, shortened: as §1
# [5] = system: human embryonic lung fibroblast IMR-90; assay: Anti-fibrosis activity test: inhibition of proliferation of human embryonic lung fibroblast IMR-90 (CCK-8); conditions: human embryonic lung fibroblast IMR-90, CCK-8, 48 hours
# Procedure, shortened: as §1
# [6] = system: cardiac fibroblast RAT-iCell-C002; assay: Anti-fibrosis activity test: inhibition of proliferation of cardiac fibroblast RAT-iCell-C002 (CCK-8); conditions: Cardiac fibroblast, 48 h, cardiac fibroblast RAT-iCell-C002, CCK-8, 48 hours
# Procedure, shortened: as §1
# BHK-21 cells = assay: Anti-fibrosis activity test: inhibition of BHK-21 cell proliferation (CCK-8); conditions: Mesocricetus auratus, BHK-21, 48 h, CCK-8, 48 hours after administration
# Procedure, shortened: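 Cells plated 2×10^4 cells/mL; 24 h attach; compound dilutions, triplicate, 48 h, 37° C/5% CO2; CCK-8 2 h; A450; IR = (1−Ai/Ao)×100%; IC50 by curve fit.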
# [7] = system: human lung fibroblasts HFL1; assay: Anti-fibrosis activity test: inhibition of proliferation of human lung fibroblasts HFL1 (CCK-8); conditions: Homo sapiens, HFL1, 48 h, human lung fibroblasts HFL1, CCK-8, 48 hours
# Procedure, shortened: as §1
SMILES,IC50 [1] [mM],IC50 (NF-κB) [µM],IC50 [2] [mM],IC50 [3] [µM],IC50 [4] [mM],IC50 [5] [mM],IC50 [6] [mM],IC50 (BHK-21 cells) [mM],IC50 [7] [mM]
"O=C1c2c(n(Cc3ccc(-c4ccccc4)cc3)c3ccccc3c2=O)-c2cccn21 [Compound 649a, 4-([1,1′-Biphenyl]-4-ylmethyl)-9H-pyrrolizino[1,2-b]quinoline-9,10(4H)-dione]",0.05 to 5,0.1 to 1,0.05 to 5,10 to 50,0.05 to 5,0.05 to 5,0.05 to 5,0.05 to 5,0.05 to 5
"O=C1c2c(nc3ccccc3c2OCc2ccc(-c3ccccc3)cc2)-c2cccn21 [Compound 649b, 9-([1,1′-biphenyl]-4-ylmethoxy)-10H-pyrrolizino[1,2-b]quinolin-10-one]",0.05 to 5,10 to 50,0.05 to 5,10 to 50,0.05 to 5,0.05 to 5,0.05 to 5,0.05 to 5,0.05 to 5
"CS(=O)(=O)n1c2c(c(=O)c3ccccc31)C(=O)n1cccc1-2 [Compound 650a, 4-(Methylsulfonyl)-9H-pyrrolizino[1,2-b]quinoline-9,10(4H)-dione]",0.05 to 5,1 to 10,0.05 to 5,1 to 10,0.05 to 5,0.05 to 5,0.05 to 5,< 0.05,0.05 to 5
"CS(=O)(=O)Oc1c2c(nc3ccccc13)-c1cccn1C2=O [Compound 650b, 10-oxo-10H-pyrrolizino[1,2-b]quinolin-9-yl methanesulfonate]",0.05 to 5,1 to 10,0.05 to 5,1 to 10,0.05 to 5,0.05 to 5,0.05 to 5,0.05 to 5,0.05 to 5
"COCCn1c2c(c(=O)c3ccccc31)C(=O)n1cccc1-2 [Compound 652a, 4-(2-Methoxyethyl)-9H-pyrrolizino[1,2-b]quinoline-9,10(4H)-dione]",0.05 to 5,1 to 10,0.05 to 5,1 to 10,0.05 to 5,0.05 to 5,0.05 to 5,0.05 to 5,0.05 to 5
"COCCOc1c2c(nc3ccccc13)-c1cccn1C2=O [Compound 652b, 9-(2-methoxyethoxy)-10H-pyrrolizino[1,2-b]quinolin-10-one]",0.05 to 5,1 to 10,0.05 to 5,1 to 10,0.05 to 5,0.05 to 5,0.05 to 5,0.05 to 5,0.05 to 5
"O=C1c2c(n(CCF)c3ccccc3c2=O)-c2cccn21 [Compound 653a, 4-(2-Fluoroethyl)-9H-pyrrolizino[1,2-b]quinoline-9,10(4H)-dione]",0.05 to 5,1 to 10,0.05 to 5,1 to 10,0.05 to 5,0.05 to 5,0.05 to 5,0.05 to 5,0.05 to 5
"O=C1c2c(nc3ccccc3c2OCCF)-c2cccn21 [Compound 653b, 9-(2-fluoroethoxy)-10H-pyrrolizino[1,2-b]quinolin-10-one]",0.05 to 5,1 to 10,0.05 to 5,1 to 10,0.05 to 5,0.05 to 5,0.05 to 5,0.05 to 5,0.05 to 5
"CCOC(=O)Cn1c2c(c(=O)c3ccccc31)C(=O)n1cccc1-2 [Compound 654a, Ethyl 2-(9,10-dioxo-9H-pyrrolizino[1,2-b]quinolin-4(10H)-yl)acetate]",< 0.05,1 to 10,0.05 to 5,1 to 10,0.05 to 5,0.05 to 5,0.05 to 5,5 to 20,0.05 to 5
"CCOC(=O)COc1c2c(nc3ccccc13)-c1cccn1C2=O [Compound 654b, ethyl 2-((10-oxo-10H-pyrrolizino[1,2-b]quinolin-9-yl)oxy)acetate]",< 0.05,1 to 10,0.05 to 5,1 to 10,0.05 to 5,0.05 to 5,0.05 to 5,0.05 to 5,0.05 to 5
"CC(C)(C)Cn1c2c(c(=O)c3ccccc31)C(=O)n1cccc1-2 [Compound 656a, 4-Neopentyl-9H-pyrrolizino[1,2-b]quinoline-9,10(4H)-dione]",0.05 to 5,1 to 10,0.05 to 5,1 to 10,0.05 to 5,0.05 to 5,0.05 to 5,0.05 to 5,0.05 to 5
"CC(C)(C)COc1c2c(nc3ccccc13)-c1cccn1C2=O [Compound 656b, 9-(neopentyloxy)-10H-pyrrolizino[1,2-b]quinolin-10-one]",0.05 to 5,1 to 10,0.05 to 5,1 to 10,0.05 to 5,0.05 to 5,0.05 to 5,0.05 to 5,0.05 to 5
"O=C1c2c(n(CC(F)(F)F)c3ccccc3c2=O)-c2cccn21 [Compound 657a, 4-(2,2,2-Trifluoroethyl)-9H-pyrrolizino[1,2-b]quinoline-9,10(4H)-dione]",0.05 to 5,0.1 to 1,0.05 to 5,1 to 10,0.05 to 5,0.05 to 5,0.05 to 5,0.05 to 5,0.05 to 5
"O=C1c2c(nc3ccccc3c2OCC(F)(F)F)-c2cccn21 [Compound 657b, 9-(2,2,2-trifluoroethoxy)-10H-pyrrolizino[1,2-b]quinolin-10-one]",0.05 to 5,10 to 50,0.05 to 5,1 to 10,0.05 to 5,0.05 to 5,0.05 to 5,0.05 to 5,0.05 to 5
"CN(C)CCCn1c2c(c(=O)c3ccccc31)C(=O)n1cccc1-2 [Compound 658a, 4-(3-(Dimethylamino)propyl)-9H-pyrrolizino[1,2-b]quinoline-9,10(4H)-dione]",0.05 to 5,0.001 to 0.1,0.05 to 5,1 to 10,0.05 to 5,0.05 to 5,0.05 to 5,0.05 to 5,0.05 to 5
"CN(C)CCCOc1c2c(nc3ccccc13)-c1cccn1C2=O [Compound 658b, 9-(3-(dimethylamino)propoxy)-10H-pyrrolizino[1,2-b]quinolin-10-one]",0.05 to 5,1 to 10,0.05 to 5,1 to 10,0.05 to 5,0.05 to 5,0.05 to 5,0.05 to 5,0.05 to 5
"CS(=O)(=O)CCCn1c2c(c(=O)c3ccccc31)C(=O)n1cccc1-2 [Compound 659a, 4-(3-(Methylsulfonyl)propyl)-9H-pyrrolizino[1,2-b]quinoline-9,10(4H)-dione]",0.05 to 5,1 to 10,0.05 to 5,1 to 10,0.05 to 5,0.05 to 5,0.05 to 5,0.05 to 5,0.05 to 5
"CS(=O)(=O)CCCOc1c2c(nc3ccccc13)-c1cccn1C2=O [Compound 659b, 9-(3-(methylsulfonyl)propoxy)-10H-pyrrolizino[1,2-b]quinolin-10-one]",0.05 to 5,1 to 10,0.05 to 5,1 to 10,0.05 to 5,0.05 to 5,0.05 to 5,0.05 to 5,0.05 to 5
"CC(C)(O)Cn1c2c(c(=O)c3ccccc31)C(=O)n1cccc1-2 [Compound 660a, 4-(2-Hydroxy-2-methylpropyl)-9H-pyrrolizino[1,2-b]quinoline-9,10(4H)-dione]",0.05 to 5,1 to 10,0.05 to 5,1 to 10,0.05 to 5,0.05 to 5,0.05 to 5,0.05 to 5,0.05 to 5
"CC(C)(O)COc1c2c(nc3ccccc13)-c1cccn1C2=O [Compound 660b, 9-(2-hydroxy-2-methylpropoxy)-10H-pyrrolizino[1,2-b]quinolin-10-one]",0.05 to 5,1 to 10,0.05 to 5,1 to 10,0.05 to 5,0.05 to 5,0.05 to 5,0.05 to 5,0.05 to 5

# Source: US11040028B2, “Penicinotam derivative, preparation method and use thereof” (OCEAN UNIVERSITY OF CHINA, priority 2017, dated 2021)
